# According to patent publication US20100310637A1, “COMPOSITION AND METHOD FOR THE TREATMENT OR PREVENTION OF GLAUCOMA AND OCULAR HYPERTENSION” (priority 2007, published 2010):
# Key:
# [1] = tested on: filtering bleb; assay: Success rate of filtering bleb after trabeculectomy; type: in vivo, rabbit; settings: rabbits after trabeculectomy; daily injections to the filtering bleb
# Description: 15 rabbits underwent trabeculectomy. Five rabbits were treated with daily insulin injections to the filtering bleb, 5 others received denaturized insulin and another 5 rabbits received same volume and same frequency of balanced salt solution. The results of successful blebs at month 4 were 4 out of 5 for the insulin group, and 2 out of 5 and 3 out of 5 for the denaturized insulin and the balanced salt solution respectively.
# [2] = tested on: diabetic patients; assay: Systemic insulin and intraocular pressure in humans; type: in vivo, human
# Excerpt: Recently there is a growing worldwide trend towards appreciating the merits of insulin in the treatment of diabetic patients. Contrary to the previous practice, patient are encouraged now to switch from oral hypoglycemic treatment to insulin treatment, or even to start therapy with insulin without a period of therapy with the oral hypoglycemic agents. Twelve diabetic patients were scheduled to start insulin therapy. […] None of them had been found with diabetic retinopathy or glaucoma. The drug prescription history was reviewed, and none of the twelve patients was found with systemic therapy that can affect the intraocular pressure measurements. So far, none of them was switched to systemic therapy with drugs that can affect the intraocular pressure. Pachymetry measurements have shown stability, without correlation with the level of intraocular pressure. There was also no correlation between blood glucose levels and the intraocular pressure. The patients were followed at 2 weeks interval in first months and then once every 3 weeks. […] After 2 months reduction in intraocular pressure was higher than 15% from baseline in all cases. At the end of 3 months the reduction in intraocular pressure for all patients ranged from 24% up to 35% from baseline. This level of intraocular pressure reduction was maintained during the follow up until now.
# [3] = tested on: rabbit eye; assay: Reduction in intraocular pressure following topical ocular (corneal) insulin administration, rabbit; type: in vivo; settings: repeated small volume applications on upper third of the cornea
# Description: (§1) Several Insulin preparations were administered to the cornea of rats and rabbits by repeated small volume applications on the upper third of the cornea with necessary measures to minimize conjunctival absorption and drainage to the nasal cavity. Reductions in intraocular pressure ranged from 28% to 36.5% in the rabbit eye and 22% to 29% in the rat eye.
# [4] = tested on: rat eye; assay: Reduction in intraocular pressure following topical ocular (corneal) insulin administration, rat; type: in vivo; settings: repeated small volume applications on upper third of the cornea
# Description: as §1
Substance,successful blebs at month 4 [1],"intraocular pressure versus baseline ([2]; 1 month after starting insulin therapy, twelve diabetic patients)","reduction in intraocular pressure from baseline ([2]; after 2 months of insulin therapy, all cases)",reduction in intraocular pressure [3],reduction in intraocular pressure [4]
insulin,4 out of 5,significantly lower than baseline values only in 5 patients,higher than 15%,–,–
"denaturized insulin: similar insulin preparation that was denaturized, used as control",2 out of 5,–,–,no stastistically significant change,no stastistically significant change
